Data on twelve compounds can be found in ChEMBL document CHEMBL1201862, “PubChem BioAssay data set” (2004).

Some test systems named below: MOLT-4; SR; NCI-H226; ACHN; HT-29; KM12; HOP-92; DU-145; SNB-19; A549; SF-268; CAKI-1; Malme-3M; HOP-62; BT-549; UO-31; SK-MEL-5; LOX IMVI; MDA-MB-435.
Test in all cases: NCI-60 cell line screen, 48 h

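Protocol summary: plate cells (96-well), add compound at 5 concentrations, incubate 48 h, interpolate endpoints linearly. Here, GI50 denotes the concentration required for 50% inhibition of growth.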 The source made the active and inactive calls. Rule as the data show it: active = GI50 up to about 1.1 µM and inactive = higher. Where a SMILES comes first, the peptide text is derived from it. [ ]: non-standard residue; d: D form. The star is where a group is joined. Chg = N[CH](C(=O)O)C1CCCCC1; Cbz = O=C(OCc1ccccc1)*; OBn = c1ccc(CO*)cc1

Consider `Cc1cccc2nc3n(c12)C(=O)c1ccccc1-3`, for which the GI50 with MOLT-4, in the assay with SR, with NCI-H226, with ACHN, in the assay with HT-29 and with KM12 was > 100 µM (inactive) throughout. Moreover, the GI50 with HOP-92 is > 100 µM (inactive); with DU-145, 44.4 µM (inactive); in the assay on SNB-19, > 100 µM (inactive); in the assay with A549 it was > 100 µM (inactive); in the assay on SF-268 it was > 100 µM (inactive); with CAKI-1, > 100 µM (inactive). In addition, the GI50 with Malme-3M, in the assay with HOP-62, in the assay on BT-549 and with UO-31 was > 100 µM (inactive) throughout.
As to `CC(C)c1ccc2nc3ccc(C(=O)NCCN4CCN(c5ccccc5)CC4)cn3c(=O)c2c1`, the GI50 is 1.87 µM (inactive) with MOLT-4; 2.58 µM (inactive) in the assay on SK-MEL-5; 2.51 µM (inactive) in the assay on SR; > 100 µM (inactive) in the assay on NCI-H226; 4.06 µM (inactive) in the assay with HT-29; 20.2 µM (inactive) with KM12. The GI50 in the assay on DU-145 was > 100 µM (inactive); in the assay on SNB-19, > 100 µM (inactive); in the assay on A549, > 100 µM (inactive); with SF-268 it was > 100 µM (inactive); with CAKI-1 it was 5.06 µM (inactive); with Malme-3M, 1.85 µM (inactive). The GI50 in the assay with HOP-62 is 6.31 µM (inactive); with BT-549, 6.3 µM (inactive); with UO-31, 4.9 µM (inactive).
With `COc1ccc2c(c1)CCCN1CCc3ccccc3C21` (configuration not stated), the GI50 in the assay on MOLT-4 was 80.4 µM (inactive); in the assay with SK-MEL-5, 33.8 µM (inactive); in the assay on SR, 20 µM (inactive); in the assay on NCI-H226, 30.1 µM (inactive); with ACHN, 47.3 µM (inactive); in the assay on HT-29 it was 33.3 µM (inactive). The GI50 with KM12 was 34.7 µM (inactive); with HOP-92, 37.2 µM (inactive); in the assay on DU-145, > 100 µM (inactive); in the assay with SNB-19, 42.6 µM (inactive); with A549, 37.3 µM (inactive); with SF-268 it was 39.9 µM (inactive). For the same compound, the GI50 in the assay with LOX IMVI was 32.5 µM (inactive); with CAKI-1, 74.5 µM (inactive); with MDA-MB-435, 21.7 µM (inactive); with Malme-3M, 37.2 µM (inactive); in the assay on HOP-62, 37.9 µM (inactive).
`O=C(OCc1ccccc1)N1CCCc2c(n(S(=O)(=O)c3ccccc3)c3ccccc23)C1`: the GI50 with MOLT-4 is > 100 µM (inactive); in the assay on SK-MEL-5, > 100 µM (inactive); with SR, 49.1 µM (inactive); in the assay on NCI-H226, > 100 µM (inactive); in the assay with ACHN it was > 100 µM (inactive); in the assay on HT-29, > 100 µM (inactive). The GI50 in the assay with KM12, in the assay with HOP-92, in the assay with DU-145, in the assay with SNB-19, in the assay on A549 and with SF-268 was > 100 µM (inactive) in each case. For the same compound, the GI50 is > 100 µM (inactive) in the assay with LOX IMVI; > 100 µM (inactive) with CAKI-1; 57.9 µM (inactive) in the assay with Malme-3M; > 100 µM (inactive) in the assay with HOP-62; > 100 µM (inactive) in the assay on BT-549; > 100 µM (inactive) in the assay on UO-31.
`CN1COCc2cc3cc4c(cc3nc21)OCCO4`: the GI50 was 11.5 µM (inactive) in the assay with MOLT-4; 39.5 µM (inactive) in the assay with SK-MEL-5; > 100 µM (inactive) with NCI-H226; > 100 µM (inactive) in the assay with ACHN; > 100 µM (inactive) in the assay on HT-29; 41.5 µM (inactive) with KM12. Further, the GI50 in the assay with HOP-92 is 38.8 µM (inactive); with SNB-19, > 100 µM (inactive); in the assay with A549, > 100 µM (inactive); with SF-268, > 100 µM (inactive); in the assay with LOX IMVI, > 100 µM (inactive); with CAKI-1, 94.6 µM (inactive). Also, the GI50 in the assay on MDA-MB-435 was > 100 µM (inactive); in the assay with Malme-3M, 30 µM (inactive); in the assay on HOP-62, > 100 µM (inactive); in the assay with BT-549, 87.3 µM (inactive).
As for `O=C1/C(=C/c2ccccc2)CN(C(=O)Oc2ccccc2)C/C1=C\c1ccccc1`, the GI50 with MOLT-4 is 9.29 µM (inactive); in the assay on SK-MEL-5, > 100 µM (inactive); in the assay with SR, 7.19 µM (inactive); in the assay with ACHN, 21.9 µM (inactive); with HT-29, > 100 µM (inactive); in the assay on KM12, > 100 µM (inactive). Besides, the GI50 with SNB-19 is 13.2 µM (inactive); in the assay with A549 it was > 100 µM (inactive); with SF-268, 24.5 µM (inactive); in the assay with LOX IMVI it was 5.01 µM (inactive); in the assay on Malme-3M, > 100 µM (inactive); in the assay with HOP-62, 11.2 µM (inactive). Also, in the assay on UO-31, the GI50 was 34.3 µM (inactive).
As for `CC1(C)CCC(C)(C)C1C(=O)NC(O)C(=O)O` (configuration not stated), the GI50 in the assay with MOLT-4 was > 100 µM (inactive); in the assay on SK-MEL-5, > 100 µM (inactive); in the assay with SR it was > 100 µM (inactive); with NCI-H226 it was > 100 µM (inactive); in the assay with ACHN, > 100 µM (inactive); with HOP-92 it was 2.43 µM (inactive). Moreover, the GI50 in the assay with DU-145, in the assay on SNB-19, in the assay with A549, in the assay with SF-268, in the assay on LOX IMVI and in the assay with MDA-MB-435 was > 100 µM (inactive) each time. The GI50 in the assay on HOP-62 and in the assay with UO-31 was > 100 µM (inactive) in each case.
On to `Nc1ccccc1[S+]([O-])c1ccccc1` (configuration not stated), for which the GI50 in the assay with MOLT-4 is > 100 µM (inactive); in the assay on SK-MEL-5 it was > 100 µM (inactive); in the assay with NCI-H226, > 100 µM (inactive); in the assay with ACHN it was > 100 µM (inactive); in the assay with KM12 it was > 100 µM (inactive); with HOP-92, 39.2 µM (inactive). The GI50 with SNB-19, in the assay with A549, in the assay on SF-268, in the assay with LOX IMVI, in the assay on Malme-3M and in the assay on HOP-62 was > 100 µM (inactive) throughout. In addition, the GI50 in the assay on UO-31 was > 100 µM (inactive).
For `CCOc1cc2c(=O)oc3c(OC)ccc4ccc(c1OC)c2c43`, the GI50 in the assay on MOLT-4 was > 100 µM (inactive); in the assay with SK-MEL-5, > 100 µM (inactive); in the assay on NCI-H226 it was 60 µM (inactive); with ACHN, 37.4 µM (inactive); in the assay on HT-29, 97.5 µM (inactive); in the assay on KM12 it was > 100 µM (inactive). For the same compound, the GI50 in the assay with HOP-92 is > 100 µM (inactive); in the assay with DU-145, > 100 µM (inactive); in the assay with SNB-19 it was 59.2 µM (inactive); with A549, 28.5 µM (inactive); in the assay on SF-268, > 100 µM (inactive); with LOX IMVI, > 100 µM (inactive). The GI50 in the assay on CAKI-1 was > 100 µM (inactive); in the assay with MDA-MB-435, > 100 µM (inactive); in the assay on Malme-3M it was > 100 µM (inactive); in the assay on HOP-62, 46.5 µM (inactive); in the assay with UO-31 it was > 100 µM (inactive).
`CCCCCCCCCCCCCCCCCC(=O)OCC(COC1OC(CS(=O)(=O)O)C(O)C(O)C1O)OC(=O)CCCCCCCCCCCCCCCCC` (configuration not stated): the GI50 in the assay with MOLT-4 was > 100 µM (inactive); in the assay with SK-MEL-5, > 100 µM (inactive); in the assay with SR it was 0.222 µM (active); with NCI-H226, > 100 µM (inactive); in the assay on ACHN it was > 100 µM (inactive); in the assay with HT-29, > 100 µM (inactive). Also, the GI50 is > 100 µM (inactive) in the assay with KM12; 45.2 µM (inactive) in the assay on HOP-92; > 100 µM (inactive) in the assay with DU-145; > 100 µM (inactive) with SNB-19; > 100 µM (inactive) in the assay on A549; > 100 µM (inactive) in the assay on SF-268. In addition, the GI50 in the assay with LOX IMVI, in the assay on CAKI-1, in the assay on MDA-MB-435, in the assay on Malme-3M and in the assay with HOP-62 was > 100 µM (inactive) each time.
With `CC(C)C(C/C=C1\CC(CO)(COC(=O)c2ccccc2)OC1=O)C(C)C` (configuration not stated), the GI50 is 18.2 µM (inactive) with MOLT-4; 10.4 µM (inactive) in the assay with SK-MEL-5; 32.2 µM (inactive) in the assay on SR; 19.8 µM (inactive) in the assay on NCI-H226; 16.7 µM (inactive) in the assay with ACHN; 19.1 µM (inactive) with HT-29. Moreover, the GI50 in the assay on KM12 is 17.5 µM (inactive); with HOP-92, 13.4 µM (inactive); in the assay with SNB-19, 17.9 µM (inactive); with A549, 15.8 µM (inactive); in the assay on SF-268, 19 µM (inactive); in the assay with LOX IMVI it was 19.5 µM (inactive). Also, the GI50 with CAKI-1 is 18.7 µM (inactive); with MDA-MB-435, 84.9 µM (inactive); in the assay with Malme-3M it was 16.8 µM (inactive); in the assay on HOP-62 it was 13.7 µM (inactive); with BT-549, 21.7 µM (inactive); in the assay on UO-31 it was 17.4 µM (inactive).
In the case of `COC(=O)C(NC(=O)C(CC(=O)OCc1ccccc1)NC(=O)OCc1ccccc1)C1CCCCC1` (configuration not stated) (Cbz-Asp(OBn)-[Chg]-OMe; configuration not given here), the GI50 with MOLT-4 was 38.3 µM (inactive); in the assay on SK-MEL-5, 0.195 µM (active); in the assay on SR it was 59 µM (inactive); in the assay on NCI-H226 it was > 100 µM (inactive); with ACHN, > 100 µM (inactive); with HT-29, 78.3 µM (inactive). The GI50 was > 100 µM (inactive) with KM12; 21.7 µM (inactive) with HOP-92; > 100 µM (inactive) in the assay with DU-145; > 100 µM (inactive) in the assay on SNB-19; > 100 µM (inactive) with A549; > 100 µM (inactive) in the assay on SF-268. The GI50 in the assay with LOX IMVI is > 100 µM (inactive); in the assay with CAKI-1, > 100 µM (inactive); in the assay on MDA-MB-435, > 100 µM (inactive); with Malme-3M it was > 100 µM (inactive); with HOP-62, > 100 µM (inactive); with UO-31, 69.7 µM (inactive).
